Assay results: paper PMC12006171, “Marsupial cathelicidins: characterization, antimicrobial activity and evolution in this unique mammalian lineage” (Frontiers in Immunology, 2025)
≈ marks a conversion by molar mass, not a printed value. Read-outs that look alike come from different tables or passages of the source. Where a SMILES comes first, the peptide text is derived from it.

Experiments:
Format in all cases: cell-based
[1] = system: Escherichia coli ATCC 25922; assay: microbe, parasite or virus in culture; settings: ATCC 25922
How it was run: (§1)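 Broth microdilution following CLSI M07-A/M26A, using peptides at 64–0.125 μg/mL final in MHB, with or without 10% lysed horse blood and with or without Ca/Mg cations (MH II B). Inoculum 5 x 10^5 CFU/mL, incubated 20–24 h at 35 °C; MIC is lowest concentration preventing visible growth, MBC by colony counts versus starting inoculum.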

[2] = system: Escherichia coli clinical isolate - animal; assay: microbe, parasite or virus in culture; settings: clinical isolate - animal
How it was run: as §1

[3] = system: Pseudomonas aeruginosa ATCC 27853; assay: microbe, parasite or virus in culture; settings: ATCC 27853; read-out: MIC P. aeruginosa ATCC
How it was run: as §1

[4] = system: Pseudomonas aeruginosa clinical isolate - animal; assay: microbe, parasite or virus in culture; settings: clinical isolate - animal
How it was run: as §1

[5] = system: Staphylococcus aureus ATCC 29213; assay: microbe, parasite or virus in culture; settings: ATCC 29213
How it was run: as §1

[6] = system: Staphylococcus aureus clinical isolate - animal; assay: microbe, parasite or virus in culture; settings: clinical isolate - animal
How it was run: as §1

[7] = system: Candida albicans Clinical isolate - human; assay: microbe, parasite or virus in culture; settings: Clinical isolate - human
How it was run: (§2)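 Broth microdilution per CLSI M07-A/M26A; cathelicidin peptides tested at final 64-0.125μg/mL, inoculum 5 x 10^5 CFU/mL, 35°C for 20–24 hours. Bacteria in MHB (±10% lysed horse blood, ±Ca/Mg), yeasts in RPMI-1640 MOPS. MIC = lowest concentration preventing visible growth.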

Candida krusei ATCC 6258 = assay: microbe, parasite or virus in culture; settings: ATCC 6258
How it was run: as §2

[8] = system: Candida parapsilosis ATCC 22019; assay: microbe, parasite or virus in culture; settings: ATCC 22019
How it was run: as §2

[9] = system: Streptococcus agalactiae ATCC 12386; assay: microbe, parasite or virus in culture; settings: ATCC 12386; read-out: MIC S. agalactiae ATCC
How it was run: as §2

[10] = system: Streptococcus agalactiae Clinical isolate - animal; assay: microbe, parasite or virus in culture; settings: clinical isolate - animal
How it was run: as §2

[11] = system: Streptococcus pneumoniae ATCC 49619; assay: microbe, parasite or virus in culture; settings: ATCC 49619; read-out: MIC S. pneumoniae ATCC
How it was run: as §2

[12] = system: Staphylococcus aureus clinical isolate – animal, methicillin-resistant (MRSA); settings: clinical isolate – animal, methicillin-resistant
How it was run: as §2

[13] = system: Staphylococcus aureus clinical isolate – animal, penicillin-resistant (PRSA); settings: clinical isolate – animal, penicillin-resistant (PRSA)
How it was run: as §2

[14] = system: six bacteria (S. aureus, E. coli, P. aeruginosa; ATCC and clinical isolate); settings: for Antibacterial (MIC <64ug/mL): synthesized mature peptide
Protocol: (§3) Antimicrobial testing of 78 cathelicidin MPs was performed in two phases as outlined in Figure 1 . In phase I, 40 peptides (27 extant and 13 ancestral) were selected for testing based on rank (outlined above) and similarity to published marsupial cathelicidins with known antimicrobial activity ([33], [41]–[43]). These peptides were tested against nine bacteria (Staphylococcus aureus ATCC 29213 and clinical isolate, Escherichia coli ATCC 25922 and clinical isolate, Pseudomonas aeruginosa ATCC 27853 and clinical isolate, Streptococcus agalactiae ATCC 12386 and clinical isolate, Streptococcus pneumoniae ATCC 49619) and three fungi (Candida krusei ATCC 6258, Candida parapsilosis ATCC 22019, and Candida albicans clinical isolate). Details regarding these strains are available in Supplementary Table 4 . The antimicrobial activity of cathelicidins was determined as the minimum inhibitory concentration (MIC), which was the lowest concentration of cathelicidin that prevented visible bacterial or fungal growth, relative to the negative control. […] Minimum bactericidal concentration (MBC) and/or minimum fungicidal concentration (MFC) was conducted to determine microbicidal versus static action. Activity against S. aureus ATCC, E. coli ATCC, and Pseudomonas aeruginosa ATCC 27853 was examined in the presence of divalent cations to determine the impact of inhibitors.
In phase II, the remaining 38 peptides (37 extant and one ancestral) were tested against six bacteria (S. aureus ATCC and clinical isolate, E. coli ATCC and clinical isolate, and P. aeruginosa ATCC and clinical isolate). […] No further testing on phase II peptides was performed. Detailed methods for all assays are provided in subsequent sections.
(§4) Antimicrobial activity was determined using a broth microdilution susceptibility assay in 96 well polypropylene plates according to Clinical Laboratory Standards Institute guidelines M07-A and M26A as described previously ([33], [42], [43]). The bacterial and fungal isolates from humans and animals used in this study are outlined in Supplementary Table 4 . Only yeasts were included in the panel of fungi as they have been used in the susceptibility testing of eutherian ([3], [81]–[83]) and other marsupial cathelicidins previously ([33], [42], [43]). Cathelicidin mature peptides were solubilized in DMSO and serially diluted in duplicate from 128-0.25μg/mL in a final volume of 100µL. For bacteria, cathelicidins were diluted in Mueller Hinton Broth (MHB) with or without 10% lysed horse blood, and with (MH II B) or without (MHB) calcium and magnesium cations. For fungi, cathelicidins were diluted in Roswell Park Memorial Institute medium (RPMI)-1640 MOPS. Ampicillin or tetracycline were included as a positive control for Gram-positive and -negative bacteria respectively, while amphotericin B was used for fungi. A media-only negative control and growth control (no cathelicidin) were also included on each plate. Bacteria were sub-cultured on Muller Hinton agar (MHA) or sheep blood agar (BA), and fungi on Sabouraud dextrose agar (SAB), 20–24 hours prior to the test. Colonies were suspended in saline, the concentration adjusted to a 0.5 McFarland standard, and then diluted in media to a concentration of 1.0 x 10^6 cells/mL. Then, 100μL was added to each well of the cathelicidin dilution plate, giving a final inoculum density of 5 x 10^5 CFU/mL and cathelicidin concentration of 64-0.125μg/mL. Colony counts were performed on MHA/BA/SAB to confirm inoculum density. All plates were incubated at 35°C for 20–24 hours, depending on the strain.
(§5) Colonies were counted and compared to the colony count of the starting inoculum.

[15] = system: three fungi (Candida krusei, Candida parapsilosis, Candida albicans); assay: Antifungal screening, summary over the panel of fungi (broth microdilution); settings: synthesized mature peptide
Protocol: as §3, §4, §5

[16] = read-out: MIC in the presence of cations E. coli ATCC
[17] = broth microdilution screening, phase I or II, Y/N summary over the bacteria tested
[18] = broth microdilution screening, phase I, Y/N summary over the fungi tested

CC[C@H](C)[C@H](NC(=O)[C@H](CCCNC(=N)N)NC(=O)[C@@H](NC(=O)[C@H](CCCNC(=N)N)NC(=O)[C@@H](N)CCCCN)[C@@H](C)CC)C(=O)N[C@@H](CC(C)C)C(=O)NCC(=O)N[C@@H](CCCNC(=N)N)C(=O)N[C@@H](CC(C)C)C(=O)N[C@@H](Cc1c[nH]c2ccccc12)C(=O)N[C@@H](CC(=O)O)C(=O)NCC(=O)N[C@@H](CC(C)C)C(=O)N[C@@H](CCCNC(=N)N)C(=O)N[C@@H](CC(N)=O)C(=O)N[C@@H](CC(C)C)C(=O)NCC(=O)N[C@@H](CC(N)=O)C(=O)N[C@@H](CCCNC(=N)N)C(=O)N[C@H](C(=O)N[C@@H](CCCNC(=N)N)C(=O)N[C@@H](CC(N)=O)C(=O)N[C@@H](CCCNC(=N)N)C(=O)N[C@H](C(=O)N[C@@H](CCCNC(=N)N)C(=O)N[C@@H](CC(=O)O)C(=O)N[C@@H](Cc1ccccc1)C(=O)N[C@@H](Cc1ccccc1)C(=O)N[C@@H](CO)C(=O)O)[C@@H](C)CC)[C@@H](C)CC [MyfaCath5] (H-KRIRILGRLWDGLRNLGNRIRNRIRDFFS-OH)
MBC E. coli ATCC [1]: 17.7 µM (≈ 63.9 µg/mL)
MIC ([1]; read-out: MIC E. coli ATCC): 8.8 µM (≈ 31.8 µg/mL)
MIC [1, 16]: 8.8 µM
MBC E. coli [2]: 8.8 (8.8)^8.8 µM
MIC E. coli [2]: 8.8 (8.8)^8.8 µM
MIC in the presence of cations E. coli [2]: 8.8 (8.8)^8.8 µM
MIC [3]: >17.7 µM
MIC ([4]; read-out: MIC P. aeruginosa): >17.7 µM
MBC S. aureus ATCC [5]: 17.7 µM (≈ 63.9 µg/mL)
MIC ([5]; read-out: MIC S. aureus ATCC): 8.8 µM (≈ 31.8 µg/mL)
MIC ([5]; read-out: MIC in the presence of cations S. aureus ATCC): 4.4 µM
MBC S. aureus [6]: 8.8 µM (≈ 31.8 µg/mL)
MIC ([6]; read-out: MIC S. aureus): 4.4 µM (≈ 15.9 µg/mL)
MIC ([6]; read-out: MIC in the presence of cations S. aureus): 4.4 µM
MIC ([7]; read-out: MIC C. albicans): >17.7 µM
MFC C. krusei ATCC (Candida krusei ATCC 6258): 4.4 µM (≈ 15.9 µg/mL)
MIC C. krusei ATCC (Candida krusei ATCC 6258): 4.4 µM (≈ 15.9 µg/mL)
MFC C. parapsilosis ATCC [8]: 17.7 µM (≈ 63.9 µg/mL)
MIC C. parapsilosis ATCC [8]: 17.7 µM (≈ 63.9 µg/mL)
MIC [9]: >17.7 µM
MIC ([10]; read-out: MIC S. agalactiae): >17.7 µM
MIC [11]: >17.7 µM
MBC MRSA [12]: 8.8 µM (≈ 31.8 µg/mL)
MIC MRSA [12]: 8.8 µM (≈ 31.8 µg/mL)
MBC PRSA [13]: 2.2 µM (≈ 7.95 µg/mL)
MIC PRSA [13]: 2.2 µM (≈ 7.95 µg/mL)

CC[C@H](C)[C@H](NC(=O)[C@H](CCCNC(=N)N)NC(=O)[C@H](CC(=O)O)NC(=O)[C@H](Cc1c[nH]c2ccccc12)NC(=O)[C@@H](NC(=O)[C@H](CCCNC(=N)N)NC(=O)[C@H](CCCNC(=N)N)NC(=O)[C@@H](NC(=O)[C@H](CC(C)C)NC(=O)[C@H](CCCNC(=N)N)NC(=O)CNC(=O)[C@H](CC(C)C)NC(=O)[C@H](CCCNC(=N)N)NC(=O)CNC(=O)[C@H](CCCNC(=N)N)NC(=O)[C@@H](N)CCCCN)[C@@H](C)CC)[C@@H](C)CC)C(=O)N[C@@H](CCCNC(=N)N)C(=O)NCC(=O)NCC(=O)O [MyfaCath7] (H-KRGRLGRLIRRIWDRIRGG-OH)
MBC E. coli ATCC [1]: 1.7 µM (≈ 3.97 µg/mL)
MIC ([1]; read-out: MIC E. coli ATCC): 1.7 µM (≈ 3.97 µg/mL)
MIC [1, 16]: 3.4 µM
MBC E. coli [2]: 1.7 (1.7)^1.7 µM
MIC E. coli [2]: 1.7 (1.7)^1.7 µM
MIC in the presence of cations E. coli [2]: 1.7 (1.7)^1.7 µM
MIC [3]: >27.4 µM
MBC P. aeruginosa [4]: > 27.4 µM
MIC ([4]; read-out: MIC P. aeruginosa): 13.7 µM (≈ 32 µg/mL)
MIC ([4]; read-out: MIC in the presence of cations P. aeruginosa): 27.4 µM
MBC S. aureus ATCC [5]: 3.4 (3.4)^3.4 µM
MIC S. aureus ATCC [5]: 3.4 (3.4)^3.4 µM
MIC in the presence of cations S. aureus ATCC [5]: 3.4 (3.4)^3.4 µM
MBC S. aureus [6]: 3.4 (3.4)^3.4 µM
MIC S. aureus [6]: 3.4 (3.4)^3.4 µM
MIC in the presence of cations S. aureus [6]: 3.4 (3.4)^3.4 µM
MFC C. albicans [7]: 27.4 µM (≈ 64 µg/mL)
MIC C. albicans [7]: 27.4 µM (≈ 64 µg/mL)
MFC C. krusei ATCC (Candida krusei ATCC 6258): 6.8 µM (≈ 15.9 µg/mL)
MIC C. krusei ATCC (Candida krusei ATCC 6258): 6.8 µM (≈ 15.9 µg/mL)
MFC C. parapsilosis ATCC [8]: 13.7 µM (≈ 32 µg/mL)
MIC C. parapsilosis ATCC [8]: 13.7 µM (≈ 32 µg/mL)
MIC [9]: >27.4 µM
MBC S. agalactiae [10]: 13.7 µM (≈ 32 µg/mL)
MIC S. agalactiae [10]: 13.7 µM (≈ 32 µg/mL)
MIC [11]: >27.4 µM
MBC MRSA [12]: 3.4 µM (≈ 7.94 µg/mL)
MIC MRSA [12]: 3.4 µM (≈ 7.94 µg/mL)
MBC PRSA [13]: 1.7 µM (≈ 3.97 µg/mL)
MIC PRSA [13]: 1.7 µM (≈ 3.97 µg/mL)
MIC against at least one strain [14]: 4 µg/mL (≈ 1.71 µM)

KRFGFRWFIRTLLRFRGEKVKTRFIFAIEKLIDT [MAP12, marsupial ancestral peptide, predicted by ANCESCON and GASP, synthesized]
Antibacterial (MIC <64ug/mL) ([14]; antimicrobial screening Phase I, Y/N summary over bacteria tested, broth microdilution): N (Antibacterial (MIC <64ug/mL))
Antifungal (MIC <64ug/mL) ([15]; antimicrobial screening Phase I, Y/N summary over fungi tested, broth microdilution): N (Antifungal (MIC <64ug/mL))

KRGLWESLKRKATKLGDDIRNTLRNFKIKVPVPRQWPIRV [MaruCath4p]
Antibacterial (MIC <64ug/mL) [14, 17]: Y (Antibacterial (MIC <64ug/mL))
Antifungal (MIC <64ug/mL) [15, 18]: N (Antifungal (MIC <64ug/mL))

KVKRGLWEDLKRKATKFGDDIRNTLRNVKIKFPVPHLG [MagiCath9]
Antibacterial (MIC <64ug/mL) [14, 17]: N (Antibacterial (MIC <64ug/mL))
Antifungal (MIC <64ug/mL) [15, 18]: N (Antifungal (MIC <64ug/mL))
